In this experiment the test system is Madin-Darby canine kidney (MDCK) epithelial cells. In words: 3D cell chirality (rotation direction) of cells in bilayer MATRIGEL substrate. The experiment is classed as cell-based. Conditions: MDCK cells in 3D substrate, FIG. 5. As to the method: The cell line used was Madin-Darby canine kidney (MDCK) epithelial cells. The 3D substrate culture system included a base layer was composed of 100% MATRIGEL®. The base layer was seeded with a single cell suspension of MDCK epithelial cells. After cell attachments to the base layer, a top layer was generated by overlaying culture with 2% MATRIGEL®.
Self-organization of the epithelial cells during microtissue development was observed using phase contrast imaging and confocal microscopy. The cells were stained with DAPI (4′,6-diamidino-2-phenylindole), Phalloidin, and ZO-1 antibody.
Time-lapse images were collected for at least 2 hours at intervals of 1 minute over a period of 6 days. Videos were processed in ImageJ and analyzed for quantification of collective rotational direction. Direction of rotation was categorized into clockwise (CW), counterclockwise (CCW), complex rotation, and no rotation. Phase-contrast images of microtissue development from a single cell embedded within the multilayer MATRIGEL® system over time.
Latrunculin A was used to study the role of actin function in left right asymmetry. Latrunculin A is a drug which inhibits actin polymerization. […] These studies are consistent with 2D studies.

As to `C/C1=C/C(=O)O[C@@H]2C[C@@H](CC[C@H](C)/C=C\C=C\CC1)O[C@@](O)([C@@H]1CSC(=O)N1)C2` [Latrunculin A], for the setting “base layer 100% MATRIGEL, top layer 2% MATRIGEL”, the “effect on cell chirality (rotation direction)” value is given as “reversal of chirality”. The “concentration dependence of chirality effect” value (higher concentrations of Latrunculin A) is on record as “increasing clockwise chirality”.

(Values after patent US10001472B2, “3D determination of cell chirality” (Rensselaer Polytechnic Institute, priority 2015, dated 2018).)
